Laboratory results reported in patent US12109292B2, “Bioflavonoid compositions and their use” (Oraldent Limited, priority 2018, dated 2024).

Tests used:
Escherichia coli [1] = assay: Pre-treatment of high binding plates with Citrox/ε-polylysine, then Escherichia coli growth inhibition (turbidity); format: cell-based
Method: High Binding plates were pre-treated with 0.1 mL of pure Citrox/ε-Polylysine solutions incubated 60′ at room temperature. The concentrations of Citrox range from 0.06% to 4%. The ε-Polylysine concentrations range from 30 mg/L to 120 mg/L. The wells have been emptied and rinsed with 0.2 mL bi-distilled water. 0.2 mL of a diluted Escherichia coli culture (turbidity: 5 m OD at 600 nm) were given to the pre-treated wells and incubated for 3 hours at 37° C. Turbidity were measured at 600 nm and percentage of growth inhibition in comparison to untreated well calculated (FIG. 1).

Escherichia coli [2] = assay: Direct exposure of Escherichia coli mini cultures, minimal inhibitory concentration by turbidity; format: cell-based; conditions: E. coli, 5 hours at 37° C., extrapolated from FIG. 2
Method: Growth inhibition was monitored by measuring turbidity of mini cultures after 5 hours of aerobe incubation at 37° C. under agitation. Solutions were diluted to the half in cascade.

Streptococcus mutans = assay: Inhibition zone assay on agar plate; format: cell-based; conditions: 48 h at 37° C. anaerobe
Method: The antibacterial activity of ε-polylysine was semi-quantitatively assessed in a inhibition zone assay. 0.1 mL of a confluent Streptococcus mutans culture was spread over a Brain Heart Infusion (BHI) agar plate. Filter platelets (5 mm diameter) soaked with 0.01 mL substance were applied on plate. Plates were incubated 48 h at 37° C. under anaerobe conditions. The diameter of outer limit of the inhibition zones were measured, the diameter of the platelet deduced and the half result considered the radius of inhibition rings. Concentrations were tested in triplicate and their results averaged.

S. mutans = assay: Short exposure assay (bactericidal effect), colony count; format: cell-based, Streptococcus mutans; conditions: 0.05%; 10 minutes; 5000 CFU inoculum
Method: The short-term antibacterial activity of Citrox was semi-quantitatively assessed in a short exposure assay. A S. mutans culture, diluted in order to contain 5000 Colony Forming Units, was incubated for 10 minutes in presence of the antibacterial substance and extemporarily plated onto a BHI agar plate. Plates were incubated at 37° C. under anaerobe conditions and colony counted. […] Citrox 0.5% reduced the count of CFU to the half (<3000 CFU).

Row | Compound | highest ε-polylysine concentration that does not affect significantly the antibacterial effect of Citrox pretreatment (Escherichia coli [1]) [mg/L] | effect of plate-absorbed substance on growth of bacteria in suspension (Escherichia coli [1]; high binding plate, substance absorbed onto solid surface) | Minimal inhibitory concentration (MIC) (Escherichia coli [2]) [µg/mL] | Radius of inhibition rings (Streptococcus mutans; 10 mg/L) [mm] | Radius of inhibition rings (Streptococcus mutans; 100 mg/L) [mm] | Radius of inhibition rings (Streptococcus mutans; 1000 mg/L) [mm] | Radius of inhibition rings (Streptococcus mutans; 0.1%) [mm] | Radius of inhibition rings (Streptococcus mutans; 1%) [mm] | colony formation after short exposure (S. mutans)
1 | ε-Polylysine | 30 | does not affect the growth of bacteria in suspension | 4 | 0.5 | 2.5 | 6.5 | – | – | –
2 | OO [Water peroxide, reference compound] | – | – | – | – | – | – | 1.5 | 5 | complete absence of colony formation
